{"source": "patent US20210379067A1", "about": "(iOmx Therapeutics AG, priority 2018, published 2021)", "key": {"[1]": {"test": "Human liver microsomal stability", "format": "in vitro ADME"}, "[2]": {"test": "Mouse liver microsomal stability", "format": "in vitro ADME", "details": "liver microsomes, read-out: Intrinsic clearance"}, "PANC-1-luc cells": {"system": "PANC-1-luc cells", "test": "Sensitisation of tumour cells to in-vitro TNF attack (luciferase-based killing assay)", "format": "cell-based, human", "details": "compound plus rHuTNF (10 ng/mL) vs compound alone; FIG. 6", "protocol": "R&D Systems), and also the speed of onset of this effect. PANC1-luc is an HLA-A2.1+ luciferase-expressing pancreatic adenocarcinoma (PDAC) tumour cell line, and […]-A2-luc is an HLA-A2.1+ luciferase-expressing melanoma tumour cell line. […] After lysis, luciferase assay buffer is added and immediately the luciferase intensity was measured by using the TECAN-Spark microplate reader. The PANC1-luc cell line is constructed as follows: PANC-1 cells acquired from the American Type Cell Culture (ATCC). Tumour cells are transfected with a pEGFP-Luc plasmid, using TransIT-LT1 (Mirus) as transfection reagent. Transfected cells are selected with 1 mg/mL of G418/Geneticin, and 14 days after selection EGFP+ cells are sorted using, eg a BD […] II cell sorter."}, "in vitro": {"test": "in vitro", "details": "dog, MDCK"}, "MDR1": {"system": "MDR1", "test": "in vitro", "details": "dog, MDCK-MDR1"}, "ABL1 wt": {"biological_target": "T1, ABL1 wt (Homo sapiens, UniProt P00519)", "T1 construct": "the ABL1 wild-type protein (amino acids P118-S525); purchased ProQinase", "T1 sequence (P00519 118-535 limits assumed)": "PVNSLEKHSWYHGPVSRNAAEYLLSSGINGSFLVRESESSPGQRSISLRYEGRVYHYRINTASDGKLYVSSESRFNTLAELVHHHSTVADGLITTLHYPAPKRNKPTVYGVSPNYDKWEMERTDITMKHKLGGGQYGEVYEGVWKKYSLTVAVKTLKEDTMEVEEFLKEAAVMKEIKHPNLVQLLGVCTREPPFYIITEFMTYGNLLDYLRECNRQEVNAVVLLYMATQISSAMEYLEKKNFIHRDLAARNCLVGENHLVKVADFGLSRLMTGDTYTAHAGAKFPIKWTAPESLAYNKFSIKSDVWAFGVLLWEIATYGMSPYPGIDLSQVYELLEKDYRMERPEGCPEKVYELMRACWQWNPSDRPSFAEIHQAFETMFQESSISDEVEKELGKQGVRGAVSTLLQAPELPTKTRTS", "test": "33PanQinase radiometric protein kinase assay (IC50)", "format": "biochemical", "protocol": "(§1) Incorporation of 33Pi was determined with a microplate scintillation counter (Microbeta, Wallac)."}, "SIK1": {"biological_target": "T2, SIK1 (Homo sapiens, UniProt P57059)", "T2 construct": "purchased ProQinase", "test": "33PanQinase radiometric protein kinase assay (IC50)", "format": "biochemical", "protocol": "as §1"}, "SIK2": {"biological_target": "T3, SIK2 (Homo sapiens, UniProt Q9H0K1)", "T3 construct": "purchased ProQinase", "test": "33PanQinase radiometric protein kinase assay (IC50)", "format": "biochemical", "protocol": "as §1"}, "SIK3": {"biological_target": "T4, SIK3 (Homo sapiens, UniProt Q9Y2K2)", "T4 construct": "purchased ProQinase", "test": "33PanQinase radiometric protein kinase assay (IC50)", "format": "biochemical", "protocol": "as §1"}, "SRC": {"biological_target": "T5, SRC (Homo sapiens, UniProt P12931)", "T5 construct": "GST; HIS; purchased ProQinase (inferred from the trademark)", "test": "33PanQinase radiometric protein kinase assay (IC50)", "format": "biochemical", "protocol": "as §1"}, "M579-A2-luc cells": {"system": "M579-A2-luc cells", "test": "Sensitisation of tumour cells to in-vitro TNF attack (luciferase-based viability readout)", "format": "cell-based, human", "details": "TNF 10 ng/mL; compound between about 10 and 100 nM; FIG. 7", "protocol": "PANC1-luc is an HLA-A2.1+ luciferase-expressing pancreatic adenocarcinoma (PDAC) tumour cell line, and M579-A2-luc is an HLA-A2.1+ luciferase-expressing melanoma tumour cell line.\nAfter lysis, luciferase assay buffer is added and immediately the luciferase intensity was measured by using the TECAN-Spark microplate reader."}, "JAK1 aa583-1154 wt": {"biological_target": "T6, JAK1 aa583-1154 wt (Homo sapiens, UniProt P23458)", "T6 construct": "JAK1 aa583-1154 wt; purchased ProQinase", "T6 sequence (P23458 583-1154)": "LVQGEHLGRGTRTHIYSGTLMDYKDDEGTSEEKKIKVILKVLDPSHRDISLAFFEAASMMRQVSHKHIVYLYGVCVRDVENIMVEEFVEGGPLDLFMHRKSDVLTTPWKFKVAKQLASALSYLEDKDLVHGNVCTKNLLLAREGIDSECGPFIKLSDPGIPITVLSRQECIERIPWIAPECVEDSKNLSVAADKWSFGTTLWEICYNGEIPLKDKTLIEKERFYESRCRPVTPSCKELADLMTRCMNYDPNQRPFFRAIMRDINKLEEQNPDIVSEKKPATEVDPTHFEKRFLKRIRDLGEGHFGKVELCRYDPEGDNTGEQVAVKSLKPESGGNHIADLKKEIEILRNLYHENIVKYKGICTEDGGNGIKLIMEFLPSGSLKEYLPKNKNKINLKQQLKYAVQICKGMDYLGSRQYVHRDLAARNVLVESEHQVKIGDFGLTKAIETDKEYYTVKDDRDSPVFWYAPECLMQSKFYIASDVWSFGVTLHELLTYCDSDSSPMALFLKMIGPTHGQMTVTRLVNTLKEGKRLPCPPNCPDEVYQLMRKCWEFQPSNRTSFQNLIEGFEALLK", "test": "Kinase Profiler single-point (1 uM) inhibition", "format": "biochemical"}, "RAF1": {"biological_target": "T7, RAF1 (Homo sapiens, UniProt P04049, Y340D/Y341D)", "T7 construct": "purchased ProQinase, Freiburg, Germany (Kinase Profiler service)", "T7 sequence (P04049 307-648 Y340D/Y341D limits assumed)": "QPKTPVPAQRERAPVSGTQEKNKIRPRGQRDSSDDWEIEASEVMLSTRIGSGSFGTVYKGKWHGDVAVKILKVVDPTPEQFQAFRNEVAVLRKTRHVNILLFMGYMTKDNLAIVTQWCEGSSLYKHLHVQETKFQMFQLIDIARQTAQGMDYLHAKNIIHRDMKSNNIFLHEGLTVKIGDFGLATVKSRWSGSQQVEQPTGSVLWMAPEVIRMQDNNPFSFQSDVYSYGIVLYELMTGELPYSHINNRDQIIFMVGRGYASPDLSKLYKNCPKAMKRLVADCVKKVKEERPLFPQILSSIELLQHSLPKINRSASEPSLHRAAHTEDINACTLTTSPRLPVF", "test": "Kinase Profiler single-point (1 uM) inhibition", "format": "biochemical", "details": "1 uM compound, read-out: residual activity class (FIG. 3)"}, "KU812 tumours": {"system": "KU812 tumours", "details": "large KU812 tumours; 50 mg/kg/day for 5 days; cited from earlier work"}, "K562 CML cells": {"system": "K562 CML cells", "details": "similar study, cited from earlier work"}, "K562 human CML tumours": {"system": "K562 human CML tumours", "details": "high doses; cited from earlier work"}}}
{"smiles": "Cc1nc(Nc2ncc(C(=O)Nc3c(Cl)ccnc3C)s2)cc(N2CCN(CCO)CC2)n1", "note": "[Compound B3, N-(4-chloro-2-methylpyridin-3-yl)-2-((6-(4-(2-hydroxyethyl)piperazin-1-yl)-2-methylpyrimidin-4-yl)amino)thiazole-5-carboxamide]", "values": [{"measurement": "drug remaining at 40 min, times more than dasatinib", "setting": "[1]; hLM assay", "result": 10, "unit": "times"}, {"measurement": "half-life, times longer than dasatinib", "setting": "[1]; hLM assay", "result": "~6", "unit": "times"}, {"measurement": "microsomal CLint", "setting": "[1]; liver microsomes, human liver microsomal stability, read-out: Intrinsic clearance", "result": 24, "unit": "µL/min/mg"}, {"measurement": "microsomal CLint", "setting": "[2]", "result": 22, "unit": "µL/min/mg"}, {"measurement": "sensitisation of tumour cells to TNF attack", "setting": "PANC-1-luc cells", "result": "sensitisation of tumour-cells to in-vitro TNF-attack"}, {"measurement": "Papp A→B", "setting": "in vitro", "result": 6.8, "unit": "×10⁻⁶ cm/s"}, {"measurement": "Papp B→A", "setting": "in vitro", "result": 20, "unit": "×10⁻⁶ cm/s"}, {"measurement": "Papp A→B", "setting": "MDR1", "result": "< 0.8", "unit": "×10⁻⁶ cm/s"}, {"measurement": "Papp B→A", "setting": "MDR1", "result": 20, "unit": "×10⁻⁶ cm/s"}]}
{"smiles": "COc1c(F)cccc1NC(=O)c1cnc(Nc2cc(N3CCN(CCO)CC3)nc(C)n2)s1", "note": "[Compound B4, N-(3-fluoro-2-methoxyphenyl)-2-((6-(4-(2-hydroxyethyl)piperazin-1-yl)-2-methylpyrimidin-4-yl)amino)thiazole-5-carboxamide]", "values": [{"measurement": "inhibitory activity", "setting": "ABL1 wt", "result": "potent inhibitor of ABL1 & SRC"}, {"measurement": "inhibitory activity", "setting": "SIK1", "result": "strong inhibitor or SIK1 and SIK2"}, {"measurement": "inhibitory activity", "setting": "SIK2", "result": "strong inhibitor or SIK1 and SIK2"}, {"measurement": "inhibitory activity", "setting": "SIK3", "result": "weak inhibitor of SIK3"}, {"measurement": "inhibitory activity", "setting": "SRC", "result": "potent inhibitor of ABL1 & SRC"}, {"measurement": "tumour cell cytotoxicity with TNF compared to inhibitor alone", "setting": "M579-A2-luc cells", "result": "fails to exhibit cytotoxicity"}]}
{"smiles": "CCOc1cccc(Cl)c1NC(=O)c1cnc(Nc2cc(N3CCN(CCO)CC3)nc(C)n2)s1", "note": "[Compound B8, N-(2-Chloro-6-ethoxyphenyl)-2-((6-(4-(2-hydroxyethyl)piperazin-1-yl)-2-methylpyrimidin-4-yl)amino)thiazole-5-carboxamide]", "values": [{"measurement": "inhibitory activity", "setting": "SIK1", "result": "low inhibitory activity against SIK family members"}, {"measurement": "inhibitory activity", "setting": "SIK2", "result": "low inhibitory activity against SIK family members"}, {"measurement": "inhibitory activity", "setting": "SIK3", "result": "low inhibitory activity against SIK family members"}, {"measurement": "tumour cell cytotoxicity with TNF compared to inhibitor alone", "setting": "M579-A2-luc cells", "result": "fails to exhibit cytotoxicity"}]}
{"smiles": "Cc1nc(Nc2ncc(C(=O)Nc3c(Cl)cccc3Br)s2)cc(N2CCN(CCO)CC2)n1", "note": "[Compound B1, N-(2-bromo-6-chlorophenyl)-2-((6-(4-(2-hydroxyethyl)piperazin-1-yl)-2-methylpyrimidin-4-yl)amino)thiazole-5-carboxamide]", "values": [{"measurement": "inhibitory activity", "setting": "SIK1", "result": "pan-SIK and ABL1 & SRC inhibitor"}, {"measurement": "inhibitory activity", "setting": "SIK2", "result": "pan-SIK and ABL1 & SRC inhibitor"}, {"measurement": "inhibitory activity", "setting": "SIK3", "result": "pan-SIK and ABL1 & SRC inhibitor"}, {"measurement": "tumour cell cytotoxicity with TNF compared to inhibitor alone", "setting": "M579-A2-luc cells", "result": "increased cytotoxicity"}]}
{"smiles": "Cc1nc(Nc2ncc(C(=O)Nc3c(C)cccc3Cl)s2)cc(N2CCN(CCO)CC2)n1", "note": "[Compound A8, N-(2-chloro-6-methylphenyl)-2-((6-(4-(2-hydroxyethyl)piperazin-1-yl)-2-methylpyrimidin-4-yl)amino)thiazole-5-carboxamide]", "values": [{"measurement": "Residual activity (%) at 1 uM", "setting": "JAK1 aa583-1154 wt", "result": 41, "unit": "%"}, {"measurement": "remaining activity at 1 µM", "setting": "RAF1", "result": "< 25", "unit": "%"}, {"measurement": "sensitisation of tumour cells to TNF attack", "setting": "PANC-1-luc cells", "result": "sensitisation of tumour-cells to in-vitro TNF-attack"}, {"measurement": "tumour response", "setting": "KU812 tumours", "result": "curative"}, {"measurement": "survival", "setting": "K562 CML cells; 10 and 30 mg/kg/day", "result": "increased survival"}]}
{"smiles": "Cc1ccc(NC(=O)c2ccc(CN3CCN(C)CC3)cc2)cc1Nc1nccc(-c2cccnc2)n1", "note": "[imatinib]", "values": [{"measurement": "tumour response", "setting": "K562 human CML tumours", "result": "failed to produce a comparative response"}, {"measurement": "intracranial tumour growth", "setting": "K562 CML cells; 200 mg/kg/day", "result": "failed to inhibit intracranial tumour growth"}]}
